Experimental data as given in patent US12544348B2, “Methods for treating APOE4/4-associated disorders” (The Regents of the University of California, priority 2018, dated 2026).

Test system: hippocampal cells of apoE4-KI mice
Assay: Single-nucleus RNA-seq of hippocampus of apoE4-KI mice
Type: in vivo
Description: Single-Nucleus RNA-Seq Library Preparation and Sequencing. Twelve-month-old apoE3-KI and apoE4-KI mice received daily i.p. injections of vehicle or bumetanide (0.2 mg/kg body weight) for 60 days. […] Mouse hippocampi were acutely dissected on ice. Dissected hippocampi were placed in 2 mL Hibernate A®/B27®/GlutaMAX™ (HEB) medium in a 5 mL tube. The HEB medium was removed to a 15 mL conical and kept on ice. 2 mL of chilled lysis buffer (10 mM Tris-HCl, 10 mM NaCl, 3 mM MgCl2, and 0.1% Nonidet™ P40 Substitute in Nuclease-Free Water) were added to the tissue, and the hippocampi were homogenized by suctioning 10× through a 21G needle. After homogenization, the tissue was lysed on ice for 15 min, swirling 2-3×during this incubation period. The reserved chilled HEB media was then returned to the lysed tissue solution, and the tissue was further triturated with 5-7 passes through a 1 mL pipette. A 30 μm cell strainer (MACS SmartStrainer; Miltenyi Biotech 130-110-915) was washed with 1 mL of PBS, and the lysed tissue solution was filtered through the strainer to remove debris and clumps. Filtered nuclei were centrifuged at 500 ref for 5 min at 4° C. […]
Single-Nucleus RNA-Seq Alignment, Clustering and Cell Type Identification. […] Reads from each sample were aligned to this genome and aggregated using the 10×Cellranger pipeline with no modifications. […] Genes with detected expression in at least 3 nuclei, and nuclei with at least 200 detected genes and a maximum of 2400 were retained for analysis for a total of Nuclei with a mitochondrial percentage of less than 0.0025 were retained for future analysis for a total of 27,415 cells. Highly variable genes were calculated via the FindVariableGenes function with the parameters: x.low.cutoff=0.0123, x.high.cutoff =3, y.cutoff=0.5 for a total of 2578 highly variable genes. […] PCAElbow Plot was used to plot the cumulative standard deviations of each principal component the significance of the association of each gene with each principal component was assessed via the JackStraw and JackStrawPlot function. […]

CCCCNc1cc(C(=O)O)cc(S(N)(=O)=O)c1Oc1ccccc1 [bumetanide, 3-(butylamino)-4-phenoxy-5-sulfamoylbenzoic acid]
number of those pathways also enriched in apoE4/4-mediated AD in humans (0.2 mg/kg daily i.p. 8 weeks): 19 | number of cell types (of 18 clusters) in which apoE4/4 AD signature genes were flipped (0.2 mg/kg daily i.p. 8 weeks, P<0.05 Monte Carlo): 12 | number of ontological pathways enriched in at least one neuronal cell type with significant flip (p<0.005, 0.2 mg/kg daily i.p. 8 weeks): 104
